The source made the active and inactive calls.
What was measured:
[1] = target: Cyclin-dependent kinase 5/CDK5 activator 1 (Homo sapiens, UniProt Q00535); experiment: blockade of human CDK5 activity – biochemical, cherry-picked samples, set 2, dose response (AID 504545)
[2] = target: T1, Polyadenylate-binding protein 1 (Homo sapiens, UniProt P11940); experiment: MLLE binding blockers, Cy5 peptide tracer – biochemical, fluorescence polarization, Cy5-PAM2 peptide, secondary, miRNA deadenylation inhibitor project, dose response (AID 602260); type: functional; conditions: read-out: IC50_Mean
[3] = target: Female germline-specific tumor suppressor gld-1 (Caenorhabditis elegans, UniProt Q17339); experiment: blockers of GLD-1/TGE RNA complex formation – biochemical, fluorescence polarization, C. elegans, dose response (AID 2802);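 also: fluorescence polarization of labeled TGE RNA bound by purified gld-1 protein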
[4] = target: T1, Polyadenylate-binding protein 1; experiment: MLLE domain peptide-binding blockers, IC50 – biochemical, fluorescence polarization, FITC-PAM2 peptide, dose response (AID 602259); type: functional; conditions: read-out: IC50_Mean
[5] = target: Protein Rev (Human immunodeficiency virus type 1 group M subtype B (isolate HXB2)(HIV-1), UniProt P04618); experiment: blockers of HIV Rev/RRE RNA complex – biochemical, fluorescence polarization, HIV-1, dose response (AID 434976); parameters: species or system Human immunodeficiency virus 1
[6] = target: T2, Corticotropin-releasing factor receptor 2/Corticotropin-releasing factor-binding protein (Homo sapiens, UniProt P24387+Q13324); experiment: activators of CRF receptor 2 with binding protein – uHTS hits, confirmation (AID 602473); type: functional; conditions: read-out: EC50_Mean
T2 sequence (Q13324 whole entry): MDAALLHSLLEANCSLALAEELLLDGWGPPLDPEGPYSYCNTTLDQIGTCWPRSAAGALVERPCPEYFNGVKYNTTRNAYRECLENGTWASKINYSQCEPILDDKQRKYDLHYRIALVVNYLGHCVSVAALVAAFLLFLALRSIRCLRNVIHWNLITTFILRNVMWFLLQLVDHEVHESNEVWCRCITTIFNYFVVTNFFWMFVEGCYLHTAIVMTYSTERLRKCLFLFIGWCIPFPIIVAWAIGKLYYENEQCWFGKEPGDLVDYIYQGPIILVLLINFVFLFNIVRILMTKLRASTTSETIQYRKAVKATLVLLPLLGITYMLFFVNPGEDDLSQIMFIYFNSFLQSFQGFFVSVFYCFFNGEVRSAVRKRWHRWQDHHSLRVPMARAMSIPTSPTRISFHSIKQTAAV
T2 sequence (P24387 whole entry): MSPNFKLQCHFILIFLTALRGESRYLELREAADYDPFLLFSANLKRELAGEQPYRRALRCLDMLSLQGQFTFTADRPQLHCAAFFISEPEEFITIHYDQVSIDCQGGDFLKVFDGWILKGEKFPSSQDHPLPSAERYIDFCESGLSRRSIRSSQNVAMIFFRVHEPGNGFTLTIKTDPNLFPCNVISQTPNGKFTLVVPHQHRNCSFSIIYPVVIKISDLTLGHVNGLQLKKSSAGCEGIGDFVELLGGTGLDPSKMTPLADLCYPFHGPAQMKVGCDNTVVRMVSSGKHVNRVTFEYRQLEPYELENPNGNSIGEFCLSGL

[7] = target: T2, Corticotropin-releasing factor receptor 2/Corticotropin-releasing factor-binding protein; experiment: Dose Response confirmation of uHTS hits for small molecule antagonists of the CRF-binding protein and CRF-R2 receptor complex.; type: functional; conditions: read-out: IC50_Mean
[8] = target: Acyl-homoserine lactone acylase PvdQ (Pseudomonas aeruginosa (strain LESB58), UniProt Q9I194); experiment: PvdQ acylase enzyme activity blockers – biochemical, fluorescence, plate reader and imaging, cherry-picks, dose response (AID 493231)
[9] = blockers of CRF-binding protein–CRF-R2 complex – cell-based, uHTS hits, 384-well, dose response (AID 651639); type: functional, Homo sapiens; conditions: read-out: IC50_Mean
[10] = target: Cytochrome P450 2D6 (Homo sapiens, UniProt P10635); experiment: qHTS Assay for Inhibitors and Substrates of Cytochrome P450 2D6. [Related pubchem assays: 410 ]; type: ADME; conditions: read-out: Potency
[11] = A cytotoxicity screen of small molecule inhibitors of the PhoP region in Salmonella typhi identified in the primary screen. [Related pubchem assays: 1850, 1864, 1985 ]; type: functional
[12] = target: Metabotropic glutamate receptor 4 (Rattus norvegicus, UniProt P31423); experiment: Modulation of the Metabotropic Glutamate Receptor mGluR4: Rat PAM Potency. [Related pubchem assays (depositor defined):AID2437, AID2807]; type: functional
Sequence of Metabotropic glutamate receptor 4 (P31423 whole entry): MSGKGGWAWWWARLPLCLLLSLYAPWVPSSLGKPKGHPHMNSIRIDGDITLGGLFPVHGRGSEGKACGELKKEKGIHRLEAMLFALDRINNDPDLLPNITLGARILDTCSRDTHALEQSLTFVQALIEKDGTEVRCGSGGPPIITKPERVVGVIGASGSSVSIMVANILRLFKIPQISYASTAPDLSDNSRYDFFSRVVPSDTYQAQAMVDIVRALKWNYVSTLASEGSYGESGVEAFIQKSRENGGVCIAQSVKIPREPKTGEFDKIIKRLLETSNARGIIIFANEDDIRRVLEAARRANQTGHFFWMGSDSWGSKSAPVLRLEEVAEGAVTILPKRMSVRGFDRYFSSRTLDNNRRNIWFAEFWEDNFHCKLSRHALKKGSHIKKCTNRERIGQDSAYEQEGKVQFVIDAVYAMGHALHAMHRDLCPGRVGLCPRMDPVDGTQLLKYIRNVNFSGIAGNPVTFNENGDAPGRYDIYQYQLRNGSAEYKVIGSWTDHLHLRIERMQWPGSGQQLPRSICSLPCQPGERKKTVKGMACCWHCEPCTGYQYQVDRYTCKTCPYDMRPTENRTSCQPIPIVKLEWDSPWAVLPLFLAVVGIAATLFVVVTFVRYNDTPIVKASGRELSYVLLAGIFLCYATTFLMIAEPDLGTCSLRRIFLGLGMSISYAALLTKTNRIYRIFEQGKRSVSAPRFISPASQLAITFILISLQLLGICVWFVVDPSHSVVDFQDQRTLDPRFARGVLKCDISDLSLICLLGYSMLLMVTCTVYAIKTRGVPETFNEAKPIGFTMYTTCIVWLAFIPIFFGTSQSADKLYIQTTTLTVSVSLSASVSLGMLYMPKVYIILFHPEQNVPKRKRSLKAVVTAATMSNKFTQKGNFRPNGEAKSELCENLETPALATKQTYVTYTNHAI

T1 sequence (P11940 whole entry): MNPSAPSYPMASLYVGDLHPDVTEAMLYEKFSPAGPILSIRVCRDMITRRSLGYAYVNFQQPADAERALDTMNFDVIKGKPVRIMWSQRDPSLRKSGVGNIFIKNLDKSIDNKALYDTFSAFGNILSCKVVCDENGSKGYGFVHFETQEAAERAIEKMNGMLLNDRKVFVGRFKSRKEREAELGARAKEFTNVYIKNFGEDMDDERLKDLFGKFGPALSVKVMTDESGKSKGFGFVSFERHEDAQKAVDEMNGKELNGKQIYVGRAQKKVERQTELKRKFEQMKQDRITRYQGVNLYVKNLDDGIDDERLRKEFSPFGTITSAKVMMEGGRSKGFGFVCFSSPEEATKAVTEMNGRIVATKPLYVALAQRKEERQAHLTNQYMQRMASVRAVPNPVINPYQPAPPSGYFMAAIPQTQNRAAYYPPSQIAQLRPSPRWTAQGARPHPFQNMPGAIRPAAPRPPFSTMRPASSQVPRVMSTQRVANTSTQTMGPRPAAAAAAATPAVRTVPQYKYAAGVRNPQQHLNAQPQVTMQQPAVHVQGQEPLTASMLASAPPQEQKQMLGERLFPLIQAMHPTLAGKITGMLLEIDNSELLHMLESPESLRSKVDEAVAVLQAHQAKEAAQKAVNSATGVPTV
Sequence of Female germline-specific tumor suppressor gld-1 (Q17339 whole entry, the tested form may be a part): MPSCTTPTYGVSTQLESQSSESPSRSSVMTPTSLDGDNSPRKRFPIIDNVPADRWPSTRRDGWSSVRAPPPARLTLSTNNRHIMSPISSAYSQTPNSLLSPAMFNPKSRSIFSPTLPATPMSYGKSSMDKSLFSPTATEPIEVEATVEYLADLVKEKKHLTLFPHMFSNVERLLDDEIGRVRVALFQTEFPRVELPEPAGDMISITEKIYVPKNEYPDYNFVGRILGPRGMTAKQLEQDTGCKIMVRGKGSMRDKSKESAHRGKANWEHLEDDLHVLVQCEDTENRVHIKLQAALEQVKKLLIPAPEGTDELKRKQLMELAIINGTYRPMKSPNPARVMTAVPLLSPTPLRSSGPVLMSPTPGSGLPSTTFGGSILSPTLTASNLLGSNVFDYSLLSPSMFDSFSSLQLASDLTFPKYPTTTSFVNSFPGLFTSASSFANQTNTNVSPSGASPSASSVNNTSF
Sequence of Cyclin-dependent kinase 5/CDK5 activator 1 (Q00535 whole entry): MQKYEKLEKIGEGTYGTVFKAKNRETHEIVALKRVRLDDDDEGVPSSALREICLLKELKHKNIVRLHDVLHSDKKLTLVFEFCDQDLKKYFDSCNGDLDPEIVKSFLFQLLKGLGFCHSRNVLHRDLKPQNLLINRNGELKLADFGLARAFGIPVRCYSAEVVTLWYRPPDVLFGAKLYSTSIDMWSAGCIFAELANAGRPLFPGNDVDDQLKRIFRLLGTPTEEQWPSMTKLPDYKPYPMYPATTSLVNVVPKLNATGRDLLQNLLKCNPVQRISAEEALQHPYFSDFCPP
Sequence of Cyclin-dependent kinase 5/CDK5 activator 1 (Q15078 whole entry, further chain): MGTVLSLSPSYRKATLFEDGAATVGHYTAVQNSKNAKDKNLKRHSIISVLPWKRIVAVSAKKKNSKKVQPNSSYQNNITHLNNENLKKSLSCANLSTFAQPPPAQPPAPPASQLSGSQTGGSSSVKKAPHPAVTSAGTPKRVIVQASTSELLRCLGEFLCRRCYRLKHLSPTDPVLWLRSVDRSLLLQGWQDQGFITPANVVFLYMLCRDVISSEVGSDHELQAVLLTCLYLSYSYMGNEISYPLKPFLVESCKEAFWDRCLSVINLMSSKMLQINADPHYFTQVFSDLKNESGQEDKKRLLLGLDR
Sequence of Cytochrome P450 2D6 (P10635 whole entry): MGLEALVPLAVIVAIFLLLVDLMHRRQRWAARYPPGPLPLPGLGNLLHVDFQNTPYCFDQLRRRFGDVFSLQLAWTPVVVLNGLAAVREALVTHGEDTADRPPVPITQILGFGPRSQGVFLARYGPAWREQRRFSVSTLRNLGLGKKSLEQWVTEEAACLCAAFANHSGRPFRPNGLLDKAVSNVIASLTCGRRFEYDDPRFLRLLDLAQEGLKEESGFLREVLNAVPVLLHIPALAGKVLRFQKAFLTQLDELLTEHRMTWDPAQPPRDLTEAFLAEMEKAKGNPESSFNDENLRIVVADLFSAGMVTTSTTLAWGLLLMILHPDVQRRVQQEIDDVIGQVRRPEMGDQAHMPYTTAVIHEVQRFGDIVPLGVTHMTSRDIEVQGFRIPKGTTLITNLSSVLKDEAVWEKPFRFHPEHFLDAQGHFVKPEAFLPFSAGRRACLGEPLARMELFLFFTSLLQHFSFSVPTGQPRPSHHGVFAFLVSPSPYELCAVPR
Sequence of Protein Rev (P04618 whole entry): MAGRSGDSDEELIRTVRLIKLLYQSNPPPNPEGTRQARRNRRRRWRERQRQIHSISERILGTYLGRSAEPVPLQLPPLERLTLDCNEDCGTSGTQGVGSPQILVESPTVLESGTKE
Sequence of Acyl-homoserine lactone acylase PvdQ (Q9I194 24-193 limits assumed): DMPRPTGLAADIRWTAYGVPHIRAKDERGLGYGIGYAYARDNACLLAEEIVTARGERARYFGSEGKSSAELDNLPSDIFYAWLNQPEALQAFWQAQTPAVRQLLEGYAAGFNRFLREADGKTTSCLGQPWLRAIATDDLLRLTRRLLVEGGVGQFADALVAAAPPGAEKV
Sequence of Acyl-homoserine lactone acylase PvdQ (Q9I194 217-762 limits assumed): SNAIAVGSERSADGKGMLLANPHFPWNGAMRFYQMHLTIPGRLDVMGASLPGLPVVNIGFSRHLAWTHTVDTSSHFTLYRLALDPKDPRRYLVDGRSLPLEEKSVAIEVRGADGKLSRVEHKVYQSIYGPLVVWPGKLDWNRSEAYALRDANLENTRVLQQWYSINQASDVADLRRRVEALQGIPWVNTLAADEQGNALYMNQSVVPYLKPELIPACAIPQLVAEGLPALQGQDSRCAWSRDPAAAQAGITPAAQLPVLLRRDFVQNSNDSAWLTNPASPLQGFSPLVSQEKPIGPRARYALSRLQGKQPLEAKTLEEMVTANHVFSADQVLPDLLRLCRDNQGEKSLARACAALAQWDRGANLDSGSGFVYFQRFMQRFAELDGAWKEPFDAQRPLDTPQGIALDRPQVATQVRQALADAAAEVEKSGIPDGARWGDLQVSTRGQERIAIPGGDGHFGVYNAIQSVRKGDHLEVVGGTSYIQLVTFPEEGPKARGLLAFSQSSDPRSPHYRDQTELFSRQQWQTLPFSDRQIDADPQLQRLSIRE

For `Nc1nc(Nc2cccc(Cl)c2)nc(NCCO)c1[N+](=O)[O-]`, the AC50 [1] was 8.21 µM (active).
In the case of `Cc1ccc2c3c(cccc13)-c1ccccc1C2=O`, the IC50 [2] is reported as 38.3 µM (inactive), the IC50 [3] is reported as 2.67 µM (active) and the IC50 [4] is reported as 51.1 µM (inactive). For the same compound, the IC50 [5] was 10.1 µM (not active).
For `O=[N+]([O-])c1cccnc1Sc1ccc(Cl)cc1`, the EC50 [6] was > 53 µM (inactive), the IC50 [7] was < 0.368 µM (active) and the AC50 [8] was 30.1 µM (active). For the same compound, the IC50 [9] was 3.1 µM (active).
With `CC(C)=CCc1c(O)cc(O)c2c1O[C@H](c1ccccc1)CC2=O` [GLABRANIN] the AC50 [10] was 31.6 µM (inconclusive).
With `CC(C)c1ccc(NC(=O)CSc2nnc(-c3ccccn3)n2C)cc1` the EC50 [11] was > 50 µM (active).
In the case of `O=C(Nc1ccc(Cl)c(Cl)c1)c1ccccn1`, the EC50 [12] is reported as 1.25 µM (active).
